Test results from ChEMBL document CHEMBL5465560, “Selectivity Literature for EUbOPEN Chemogenomic Library” (2024).
Positions count from the first letter of the chain named.

Experiments:
[1] = target: Receptor-type tyrosine-protein kinase FLT3 (Homo sapiens) (UniProt P36888); test: (§1) Selectivity interaction (KinomeScan (DiscoverX)) EUB0000229b FLT3; settings: at 10 µM
[2] = tested on: Receptor-type tyrosine-protein kinase FLT3 (Homo sapiens), P36888 [UNDEFINED MUTATION]; test: as §1; settings: at 1 µM
[3] = tested on: T1, Receptor-type tyrosine-protein kinase FLT3 (Homo sapiens), P36888 [D835V]; test: as §1; settings: at 1 µM
T1 sequence (whole entry): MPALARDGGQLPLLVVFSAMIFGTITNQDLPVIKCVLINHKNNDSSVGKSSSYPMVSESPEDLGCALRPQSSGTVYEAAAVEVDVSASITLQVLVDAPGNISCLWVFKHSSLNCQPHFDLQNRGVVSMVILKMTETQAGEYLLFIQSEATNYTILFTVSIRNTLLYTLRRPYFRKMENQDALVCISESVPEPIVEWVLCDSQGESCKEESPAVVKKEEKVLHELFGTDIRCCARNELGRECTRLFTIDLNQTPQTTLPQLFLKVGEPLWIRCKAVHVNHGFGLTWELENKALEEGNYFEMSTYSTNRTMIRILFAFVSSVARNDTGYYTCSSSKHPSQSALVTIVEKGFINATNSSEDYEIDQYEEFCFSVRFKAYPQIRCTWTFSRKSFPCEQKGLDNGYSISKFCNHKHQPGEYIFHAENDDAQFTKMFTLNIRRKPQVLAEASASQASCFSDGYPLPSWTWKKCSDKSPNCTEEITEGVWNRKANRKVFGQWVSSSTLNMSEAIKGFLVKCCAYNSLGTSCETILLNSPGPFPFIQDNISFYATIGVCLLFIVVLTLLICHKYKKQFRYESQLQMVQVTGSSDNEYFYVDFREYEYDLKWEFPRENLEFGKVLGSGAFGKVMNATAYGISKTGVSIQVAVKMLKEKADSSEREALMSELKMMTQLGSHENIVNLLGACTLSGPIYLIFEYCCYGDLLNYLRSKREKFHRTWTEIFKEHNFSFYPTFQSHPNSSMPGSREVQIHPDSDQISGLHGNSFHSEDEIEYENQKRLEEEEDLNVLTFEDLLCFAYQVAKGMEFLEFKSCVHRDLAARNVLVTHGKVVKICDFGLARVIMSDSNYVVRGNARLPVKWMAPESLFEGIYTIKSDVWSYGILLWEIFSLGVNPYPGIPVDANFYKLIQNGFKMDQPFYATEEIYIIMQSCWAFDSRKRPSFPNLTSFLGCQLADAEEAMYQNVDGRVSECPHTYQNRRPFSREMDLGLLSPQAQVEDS

[4] = tested on: T2, Receptor-type tyrosine-protein kinase FLT3 (Homo sapiens), P36888 [D835Y]; test: as §1; settings: at 1 µM
T2 sequence (whole entry): T1 sequence (whole entry) with V835Y

[5] = tested on: T3, Receptor-type tyrosine-protein kinase FLT3 (Homo sapiens), P36888 [R834Q]; test: as §1; settings: at 1 µM
T3 sequence (whole entry): T1 sequence (whole entry) with R834Q, V835D

`COc1cc(N(C)c2ccnc3ccc(C(F)(F)F)cc23)cc(OC)c1OC` gave a % binding [1] of 78%, a % binding [2] of 54% and a % binding [3] of 88%. It also gave a % binding [4] of 69% and a % binding [5] of 100%.
